Data: patent US20260137819A1 (Radionetics Oncology, Inc., priority 2022, published 2026)

target: T1, human follicle-stimulating hormone receptor (FSHR) (Homo sapiens, UniProt P23945); assay: Measurement of agonist cAMP production by activation of human FSHR; type: cell-based; details: CHO-K1 human FSHR cells, 30 minutes at 37° C., HTRF cAMP kit; read-out: hFSHR Agonist cAMP EC50
T1 construct: host or cells: CHO-K1
T1 sequence (P23945 18-695): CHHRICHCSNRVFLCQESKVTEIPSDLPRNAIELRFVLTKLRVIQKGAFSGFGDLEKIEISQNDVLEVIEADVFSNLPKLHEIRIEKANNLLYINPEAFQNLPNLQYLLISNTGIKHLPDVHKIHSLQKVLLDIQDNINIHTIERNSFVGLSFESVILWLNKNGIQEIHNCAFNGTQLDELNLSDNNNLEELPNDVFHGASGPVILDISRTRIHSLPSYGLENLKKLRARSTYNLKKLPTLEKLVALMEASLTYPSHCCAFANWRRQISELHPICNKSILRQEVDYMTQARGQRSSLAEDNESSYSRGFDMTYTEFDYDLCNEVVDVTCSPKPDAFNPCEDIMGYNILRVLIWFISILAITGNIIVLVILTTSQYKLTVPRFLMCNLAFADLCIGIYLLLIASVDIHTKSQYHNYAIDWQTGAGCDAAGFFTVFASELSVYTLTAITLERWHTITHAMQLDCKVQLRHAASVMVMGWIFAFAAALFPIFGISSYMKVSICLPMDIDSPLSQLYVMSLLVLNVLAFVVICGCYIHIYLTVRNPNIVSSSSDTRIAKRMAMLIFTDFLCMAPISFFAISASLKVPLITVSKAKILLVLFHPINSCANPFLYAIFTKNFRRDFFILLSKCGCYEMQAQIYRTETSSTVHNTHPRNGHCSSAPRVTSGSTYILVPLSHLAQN
Description: Measurement of agonist cAMP production by activation of human FSHR
Two days prior to the assay, 5,000 CHO—K1 human FSHR cells (Eurofins #95-0119C2) stably expressing the functional human follicle-stimulating hormone receptor were plated in a 96-well tissue culture-treated plate in growth media supplemented with the appropriate selection agent. […] The cells were incubated for 30 minutes at 37° C. (the final concentrations of the compound ranged from 0-10,000 nM). After the 30-minute incubation at 37° C., lysis buffer (HRTF CAMP kit, Cisbio #62AM5PEB)w as added directly to the cells and incubated for 30-minutes at room temperature. The diluted lysate was transferred and CAMP detection and visualization antibodies (HRTF CAMP kit, Cisbio #62AM5PEB) were added and incubated for 1-24 hours at room temperature. The time-resolved fluorescent signal was read with a Tecan M1000Pro (Tecan) multiplate reader. The intracellular cAMP concentrations were calculated by regression to a standard curve and were plotted vs. the concentration of the agonists. The concentration of test compound or FSH required to generate a half maximal response EC50 were calculated using standard curve-fitting methods. All data manipulations were performed using GraphPad Prism v9.3.1 (GraphPad, San Diego, CA).

SMILES	EC50 [nM]
COc1cc2c(cc1-c1ccc(NC(=O)NCCOCCOCCOCCOCCOCCOCCNC(=O)CN3CCN(CC(=O)O)CCN(CC(=O)O)CCN(CC(=O)O)CC3)cc1)-c1c(c(C(=O)N(C)C(C)(C)C)nn1-c1cc(Cl)cc(Cl)c1)CO2 [Compound 5A, indium (III) 2,2′,2″-(10-(1-((4-(3-(tert-butyl(methyl)carbamoyl)-1-(3,5-dichlorophenyl)-7-methoxy-1,4-dihydrochromeno[4,3-c]pyrazol-8-yl)phenyl)amino)-1,24-dioxo-5,8,11,14,17,20-hexaoxa-2,23-diazapentacosan-25-yl)-1,4,7,10-tetraazacyclododecane-1,4,7-triyl)triacetate]	< 10
COc1cc2c(cc1-c1ccc(NC(=O)NCCOCCOCCOCCOCCNC(=O)CN3CCN(CC(=O)O)CCN(CC(=O)O)CCN(CC(=O)O)CC3)cc1)-c1c(c(C(=O)N(C)C(C)(C)C)nn1-c1cc(Cl)cc(Cl)c1)CO2 [Compound 6, 2,2′,2″-(10-(1-((4-(3-(tert-butyl(methyl)carbamoyl)-1-(3,5-dichlorophenyl)-7-methoxy-1,4-dihydrochromeno|4,3-clpyrazol-8-yl)phenyl)amino)-1,18-dioxo-5,8,11,14-tetraoxa-2,17-diazanonadecan-19-yl)-1,4,7,10-tetraazacyclododecane-1,4,7-triyl)triacetic acid]	< 10
COc1cc2c(cc1-c1cccc(NC(=O)NCCOCCOCCOCCOCCOCCOCCNC(=O)CN3CCN(CC(=O)O)CCN(CC(=O)O)CCN(CC(=O)O)CC3)c1)-c1c(c(C(=O)N3CCOCC3(C)C)nn1-c1cc(Cl)cc(Cl)c1)CO2 [Compound 7]	< 10
COc1cc2c(cc1-c1cccc(NC(=O)NCCOCCOCCOCCOCCNC(=O)CN3CCN(CC(=O)O)CCN(CC(=O)O)CCN(CC(=O)O)CC3)c1)-c1c(c(C(=O)N3CCOCC3(C)C)nn1-c1cc(Cl)cc(Cl)c1)CO2 [Compound 8, 2,2′,2″-(10-(1-((3-(1-(3,5-dichlorophenyl)-3-(3,3-dimethylmorpholine-4-carbonyl)-7-methoxy-1,4-dihydrochromeno[4,3-c]pyrazol-8-yl)phenyl)amino)-1,18-dioxo-5,8,11,14-tetraoxa-2,17-diazanonadecan-19-yl)-1,4,7,10-tetraazacyclododecane-1,4,7-triyl)triacetic acid]	10 to 100
COc1cc2c(cc1-c1cccc(NC(=O)NCCOCCOCCOCCOCCNC(=O)CN3CCN(CC(=O)O)CCN(CC(=O)O)CCN(CC(=O)O)CC3)c1)-c1c(c(C(=O)N3CCOCC3(C)C)nn1-c1cc(Cl)cc(Cl)c1)CO2 [Compound 8A]	< 10
COc1cc2c(cc1-c1cccc(NC(=O)C3CCN(C(=O)CN4CCN(CC(=O)O)CCN(CC(=O)O)CCN(CC(=O)O)CC4)CC3)c1)-c1c(c(C(=O)N3CCOCC3(C)C)nn1-c1cc(Cl)cc(Cl)c1)CO2 [Compound 9, 2,2′,2″-(10-(2-(4-((3-(1-(3,5-dichlorophenyl)-3-(3,3-dimethylmorpholine-4-carbonyl)-7-methoxy-1,4-dihydrochromeno[4,3-c]pyrazol-8-yl)phenyl)carbamoyl)piperidin-1-yl)-2-oxoethyl)-1,4,7,10-tetraazacyclododecane-1,4,7-triyl)triacetic acid]	10 to 100
COc1cc2c(cc1-c1cccc(NC(=O)NCCNC(=O)CCOCCNC(=O)CN3CCN(CC(=O)O)CCN(CC(=O)O)CCN(CC(=O)O)CC3)c1)-c1c(c(C(=O)N3CCOCC3(C)C)nn1-c1cc(Cl)cc(Cl)c1)CO2 [Compound 10, 2,2′,2″-(10-(1-((3-(1-(3,5-dichlorophenyl)-3-(3,3-dimethylmorpholine-4-carbonyl)-7-methoxy-1,4-dihydrochromeno[4,3-c]pyrazol-8-yl)phenyl)amino)-1,6,13-trioxo-9-oxa-2,5,12-triazatetradecan-14-yl)-1,4,7,10-tetraazacyclododecane-1,4,7-triyl)triacetic acid]	< 10

same assay, conditions: hFSHR Agonist cAMP EC50, CHO-K1 human FSHR cells, 30 minutes at 37° C., HTRF cAMP kit

SMILES	EC50 [nM]
COc1cc2c(cc1-c1cccc(NC(=O)CCC(=O)NC3CCN(C(=O)CN4CCN(CC(=O)O)CCN(CC(=O)O)CCN(CC(=O)O)CC4)CC3)c1)-c1c(c(C(=O)N3CCOCC3(C)C)nn1-c1cc(Cl)cc(Cl)c1)CO2 [Compound 11]	< 10
